The target in data set [1] is T1, recombinant carbonic anhydrase IX (Homo sapiens, UniProt Q16790).
T1 construct: Recombinant CAIX was expressed as described previously; made in house
The experiment in a line: Determination of ligand KD by fluorescence polarization. The class given is binding. The conditions noted are these: for Kd: 5 nM labeled ligand, 1 h room temperature, read-out: KD for fluorophore-linker-ligand complexes. The procedure: Fluorescently labeled ligands (2 mg) were dissolved in DMSO (100 μL) and diluted 1:2000 into PBS pH 7.4 to determine the stock's concentration by absorbance measurement at 495 nm (ε495=72,000 M^−1 cm^−1). Recombinant CAIX was expressed as described previously^[3], dialyzed against assay buffer (50 mM tris(hydroxymethyl)aminomethane [TIRS] pH 7.4 containing 1 mM ZnSO4) at 4° C. overnight and the protein concentration determined by absorbance measurement at 280 nm (ε280=35,075 M^−1 cm^−1).
In a black 384-well plate in assay buffer (30 μL) fluorescently labeled ligands (5 nM from appropriately diluted DMSO stocks, final DMSO content adjusted to 0.001%) were incubated with increasing concentrations of recombinant carbonic anhydrase IX (4.6 μM to 140 pM in steps of 1:2) for 1 h at room temperature. The fluorescence polarization (FP) was measured on a Spectra Max Paradigm multimode plate reader (Molecular Devices). Experiments were performed in triplicate, mean FP values divided by the top-plateau signal and the fractional FP value fit to equation (2) using KaleidaGraph 4.0 (Synergy Software). FP=([P]0+[L]0+KD)−√{square root over (([P]0+[L]0+KD)^2−4[P]0[L]0)} (2)
Where FP is the fractional fluorescence polarization, [P]0 the total protein concentration, [L]0 the total concentration of the fluorescently labeled ligand and KD the dissociation constant in nM.

The test system of data set [2] is subcutaneous SKRC52 tumors. The conditions noted are these: 3 nmol intravenous, 1-12 h.
Experimental: SKRC52 cells were grown to 80% confluence and detached with Trypsin-EDTA 0.05% (Invitrogen). Cells were washed with PBS pH 7.4 once, counted and resuspended in PBS to a final concentration of 6.7×10^7 cells mL^−1. Athymic balb/c nu/nu mice, 8-10 weeks of age (Charles River) were anesthetized with isofluorane and aliquots of 1×10^7 cells (150 μL of suspension) injected subcutaneously into their lower back.
Food and water was given ad libitum during that period.
Mice were subsequently sacrificed by cervical dislocation.
Data set [3] has as its target T1, recombinant carbonic anhydrase IX. Nature of the data set: biochemical. Type of data set: binding. The procedure:
The FP was measured on a Spectra Max Paradigm multimode plate reader (Molecular Devices). Experiments were performed in triplicate and data analyzed as described by Wang and co-workers.^[4]

In data set [4] the test system is CAIX expressing SKRC52 cells. The experiment in a line: In vitro cytotoxicity assay (MTS). Type of data set: cell-based, human. The procedure: SKRC52 or A549 cells were seeded in 96-well plates in their appropriate culture medium (100 μL) at a density of 5000 cells per well and allowed to grow for 24 h. The medium was replaced with medium containing different concentrations of test substance (100 μL, 300 nM-15 pM in 1:3 dilution steps) and plates were either:
(a) incubated for 72 hours in the presence of the toxic substance, or
(b) incubated for 1 h under standard culture conditions, followed by removal of the medium containing the toxic substance, gently washing the cells fresh medium once and adding new medium (100 μL) and incubating for 72 h under culture conditions.
MTS cell viability dye (20 μL, Promega) was added, the plates were incubated for 1 h under culture conditions and the absorbance at 490 nm measured on a Spectra Max Paradigm multimode plate reader (Molecular Devices). Experiments were performed in triplicate and average cell viability calculated as measured background corrected absorbance divided by the absorbance of untreated control wells. EC50 values were determined by fitting data to the four-parameter logistic equation.

The next data set has as its system SKRC52 xenograft tumors. The procedure: SKRC52 xenograft tumors were implanted into balb/c nu/nu mice (Charles River) as described above. […] 5 doses of 4 nmol 7a,b, 8a,b or 7 doses of 70 nmol 9a,b each in PBS pH 7.4 (150 μL) containing 5% DMSO were given on 5 or 7 consecutive days and one group was treated with vehicle (5% DMSO in PBS pH 7.4). In the case of 7-9b an equimolar amount of AAZ was added to the injection solution to control for a possible antitumor activity of CAIX inhibitors. Sorafenib and sunitnib were administered at a standard dose of 30 mg/kg as described previously.^[5] Animals were weighed and tumor sizes measured daily and the tumor volume calculated according to the formula (long side)×(short side)^2×0.5. […] Prism 6 (GraphPad Software) was used for data analysis (regular two-way ANOVA with the Bonferroni test).

Data set [5] relates to CAIX-expressing SKRC52 xenografts. The following applies: mouse, in vivo.
[6] abbreviates: Condition (b): 1 h exposure, wash, then 72 h, concentrations up to 300 nM.
[7] abbreviates: Homo sapiens, SK-RC-52, Condition (a): incubated 72 hours in the presence of the toxic substance.
Where [8] appears, read: Homo sapiens, SK-RC-52, Condition (b): 1 h exposure, wash, then 72 h, concentrations up to 300 nM.

Usually Kd stands for the equilibrium constant for the complex coming apart. By EC50 is commonly meant the concentration needed to bring the measured effect to its halfway point.

Consider `NS(=O)(=O)c1nnc(NC(=O)CCC(=O)NCCOCCOCCNC(=S)Nc2ccc(-c3c4ccc(=O)cc-4oc4cc(O)ccc34)c(C(=O)O)c2)s1` [Compound 1a, N1-(2-(2-(2-aminoethoxy)ethoxy)ethyl)-N4-(5-sulfamoyl-1,3,4-thiadiazol-2-yl)succinamide fluorescein conjugate], for which, in data set [1], the equilibrium dissociation constant (Kd) was found to be 12.6 ± 1 nM.

`CC(C)[C@@H](C(=O)NCCOCCOCCNC(=S)Nc1ccc(-c2c3ccc(=O)cc-3oc3cc(O)ccc23)c(C(=O)O)c1)n1cc(-c2ccc(S(N)(=O)=O)cc2)nn1` [Compound 2a, (S)—N-(2-(2-(2-aminoethoxy)ethoxy)ethyl)-3-methyl-2-(4-(4-sulfamoylphenyl)-1H-1,2,3-triazol-1-yl)butanamide fluorescein conjugate]: the Kd in data set [1] was determined as 18.1 ± 1.3 nM.

For `CC(C)[C@@H](C(=O)NCCOCCOCCNC(=O)CCCCc1ccc(C2=C(/C=C/C3=[N+](CCCCS(=O)(=O)O)c4ccc(S(=O)(=O)O)cc4C3(C)C)CCC/C2=C\C=C2\N(CCCCS(=O)(=O)O)c3ccc(S(=O)(=O)[O-])cc3C2(C)C)cc1)n1cc(-c2ccc(S(N)(=O)=O)cc2)nn1` [Compound 2c, (S)—N-(2-(2-(2-aminoethoxy)ethoxy)ethyl)-3-methyl-2-(4-(4-sulfamoylphenyl)-1H-1,2,3-triazol-1-yl)butanamide IRDye750 conjugate], the “tumor targeting by near infrared imaging” value in data set [2] was “the tumor was barely visible”.

Consider `NS(=O)(=O)c1ccc(Nc2nc(Cl)nc(NCCOCCOCCNC(=S)Nc3ccc(-c4c5ccc(=O)cc-5oc5cc(O)ccc45)c(C(=O)O)c3)n2)cc1` [Compound 3a, 4-((4-((2-(2-(2-aminoethoxy)ethoxy)ethyl)amino)-6-chloro-1,3,5-triazin-2-yl)amino)benzenesulfonamide fluorescein conjugate], for which the dissociation constant Kd in data set [1] was found to be 46.8 ± 1.2 nM.

As for `NS(=O)(=O)c1ccc(C(=O)NCCOCCOCCNC(=S)Nc2ccc(-c3c4ccc(=O)cc-4oc4cc(O)ccc34)c(C(=O)O)c2)cc1` [Compound 5a, N-(2-(2-(2-aminoethoxy)ethoxy)ethyl)-4-sulfamoylbenzamide fluorescein conjugate], the Kd in data set [1] amounted to 218 ± 9 nM.

In the case of `CC(C)(C)OC(=O)NCCOCCOCCNC(=S)Nc1ccc(-c2c3ccc(=O)cc-3oc3cc(O)ccc23)c(C(=O)O)c1` [Compound 6a, Tert-butyl (2-(2-(2-aminoethoxy)ethoxy)ethyl)carbamate fluorescein conjugate], the “binding to CAIX (in words)” value in data set [1] is “did not bind to the CAIX”.

`COc1cc2[nH]cc(C(=O)N3C[C@@H](CCl)c4c3cc(OC(=O)OCCSSC[C@H](NC(=O)[C@H](CC(=O)O)NC(=O)[C@H](CCCNC(=N)N)NC(=O)[C@H](CC(=O)O)NC(=O)CCCCn3cc(CCCC(=O)O)nn3)C(=O)O)c3ccccc43)c2cc1OCCN(C)C` [Compound 7b, Untargeted CBI Carbonate]: the “binding affinity for recombinant CAIX in vitro (in words)” value (shortened to “binding affinity for recombinant CAIX”) in data set [3] is “do not exhibit strong binding”. For the same compound, the Kd in data set [3] (unlabeled drug-linker conjugate, read-out: KD (competitive fluorescence polarization)) was greater than 1000 nM. The same compound returned a 50% effective concentration (EC50) in data set [4] (setting [6]) of 1.4 ± 0.3 nM.

As to `COc1cc2[nH]cc(C(=O)N3C[C@@H](CCl)c4c3cc(OC(=O)N(C)CCSSC[C@H](NC(=O)[C@H](CC(=O)O)NC(=O)[C@H](CCCNC(=N)N)NC(=O)[C@H](CC(=O)O)NC(=O)CCCCn3cc(CCCC(=O)O)nn3)C(=O)O)c3ccccc43)c2cc1OCCN(C)C` [Compound 8b, Untargeted CBI Carbamate], in data set [3], the “binding affinity for recombinant CAIX” value was “do not exhibit strong binding”. In the data set on SKRC52 xenograft tumors (5 doses of 4 nmol on 5 consecutive days, 7a vs vehicle p<0.0001, vs 7b plus AAZ p<0.05), the tumor growth effect entry is reported as “did not lead to any retardation in tumor growth”.

In the case of `COc1cc2cc(c1Cl)N(C)C(=O)C[C@H](OC(=O)[C@H](C)N(C)C(=O)CCSSC[C@H](NC(=O)[C@H](CC(=O)O)NC(=O)[C@H](CCCNC(=N)N)NC(=O)[C@H](CC(=O)O)NC(=O)CCCCn1cc(CCCC(=O)O)nn1)C(=O)O)[C@@]1(C)O[C@H]1[C@H](C)[C@@H]1C[C@@](O)(NC(=O)O1)[C@H](OC)/C=C/C=C(\C)C2` [Compound 9b, Untargeted DM1 Conjugate], the “binding affinity for recombinant CAIX” value in data set [3] is “do not exhibit strong binding”.

Take `COc1cc2[nH]c(C(=O)N3C[C@@H](CCl)c4c3cc(O)c3ccccc43)cc2cc1OCCN(C)C` [Compound 14, Seco CBI Drug]: the EC50 in data set [4] (setting [7]) was found to be 0.055 ± 0.005 nM; in data set [4] (setting [8]) it was 1 ± 0.1 nM.

For the compound `CC1(C)C(/C=C/C2=C(c3ccc(CCCCC(=O)NCCOCCOCCNC(=O)[C@H](CCCCNC(=O)[C@H](CC(=O)O)NC(=O)[C@H](CC(=O)O)NC(=O)CCCCn4cc(CCCC(=O)Nc5nnc(S(N)(=O)=O)s5)nn4)NC(=O)[C@H](CC(=O)O)NC(=O)[C@H](CC(=O)O)NC(=O)CCCCn4cc(CCCC(=O)Nc5nnc(S(N)(=O)=O)s5)nn4)cc3)C(=C/C=C3/N(CCCCS(=O)(=O)O)c4ccc(S(=O)(=O)O)cc4C3(C)C)/CCC2)=[N+](CCCCS(=O)(=O)[O-])c2ccc(S(=O)(=O)O)cc21` [Compound B4], in data set [5], the “accumulation in the tumour (imaging)” value is on record as “strongly accumulated in the tumour”; the “integrated fluorescence signal in the tumour, of its initial value” is given as 40%; the “residence on the tumour” value is listed as “significantly longer residence on the tumour”; the “tumour:lung ratio” value is “higher tumour:lung ratio than B3”.

In data set [4] (setting [6]), `COc1cc2cc(c1Cl)N(C)C(=O)C[C@H](OC(=O)[C@H](C)N(C)C(=O)CCS)[C@]1(C)O[C@H]1[C@H](C)[C@@H]1C[C@@](O)(NC(=O)O1)[C@H](OC)/C=C/C=C(\C)C2` [DM1, reference compound] came in with an EC50 of 45 ± 10 nM.

In the case of `COc1cc2cc(c1Cl)N(C)C(=O)C[C@@H](OC(=O)[C@@H](C)NC(=O)CCSC)[C@]1(C)O[C@@H]1[C@@H](C)[C@@H]1C[C@](O)(NC(=O)O1)[C@@H](OC)/C=C/C=C(\C)C2` [DM1SMe, DM1-SMe, reference compound], the EC50 in data set [4] (setting [7]) was 0.5 nM; in data set [4] (setting [8]), 5.8 ± 1.1 nM.

As for `CNC(=O)c1cc(Oc2ccc(NC(=O)Nc3ccc(Cl)c(C(F)(F)F)c3)cc2)ccn1` [sorafenib, reference compound], the “antitumor effect of standard drugs” value in the data set with SKRC52 xenograft tumors (standard dose of 30 mg/kg) is listed as “neither sorafenib nor sunitinib, which represent the most commonly used chemotherapeutic agents for the treatment of kidney cancer, exhibited any detectable antitumor effect”.

The record behind these values is patent US9884122B2, “Small molecule drug conjugates” (Philochem AG, priority 2014, dated 2018).
